# Data reported in PubChem BioAssay AID330 (DTP/NCI, 2004).
# Values joined by “and” are separate entries in the source; they are usually repeats but may differ in a detail not shown here. Equal entries are not always repeated. Inconclusive results and toxic doses are left out.
# System: P388 leukemia ip, CD2F1 mice, survival T/C
# Test: NCI In Vivo Anticancer Drug Screen. Data for tumor model P388 Leukemia (intraperitoneal) in CD2F1 (CDF1) mice
# Conditions: endpoint: median survival time, higher = longer survival
# Outline: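 Mice carrying the transplanted tumor received test compound or vehicle. Survival was recorded in each group, and the value is the treated-group measurement divided by that of the vehicle-treated control group.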
# [1] = dose: 50.0 mg/kg/injection, schedule: Q01DX005 (ip), vehicle: saline with Tween-80
# [2] = dose: 100.0 mg/kg/injection, schedule: Q01DX005 (ip), vehicle: saline with Tween-80
# [3] = dose: 200.0 mg/kg/injection, schedule: Q01DX005 (ip), vehicle: saline with Tween-80
# [4] = dose: 60.0 mg/kg/injection, schedule: Q01DX005 (ip), vehicle: saline with Tween-80
# [5] = dose: 120.0 mg/kg/injection, schedule: Q01DX005 (ip), vehicle: saline with Tween-80
# [6] = dose: 240.0 mg/kg/injection, schedule: Q01DX005 (ip), vehicle: saline with Tween-80
# [7] = dose: 50.0 mg/kg/injection, schedule: Q01DX009 (ip), vehicle: Klucel (hydroxypropylcellulose) (HPC)
# [8] = dose: 100.0 mg/kg/injection, schedule: Q01DX009 (ip), vehicle: Klucel (hydroxypropylcellulose) (HPC)
# [9] = dose: 200.0 mg/kg/injection, schedule: Q01DX009 (ip), vehicle: Klucel (hydroxypropylcellulose) (HPC)
# [10] = dose: 50.0 mg/kg/injection, schedule: Q01DX009 (ip), vehicle: saline
# [11] = dose: 100.0 mg/kg/injection, schedule: Q01DX009 (ip), vehicle: saline
# [12] = dose: 200.0 mg/kg/injection, schedule: Q01DX009 (ip), vehicle: saline
structure (smiles),measurement,setting,value
CC(N)=S=O,T/C,"dose: 15.0 mg/kg/injection, schedule: Q01DX005 (ip), vehicle: saline",112 % of control
same,T/C,"dose: 30.0 mg/kg/injection, schedule: Q01DX005 (ip), vehicle: saline",103 % of control
same,T/C,"dose: 60.0 mg/kg/injection, schedule: Q01DX005 (ip), vehicle: saline",106 % of control and 94 % of control
CC(O)(c1ccco1)c1nc2ccccc2s1 (stereo not given),T/C,"dose: 60.0 mg/kg/injection, schedule: Q01DX005 (ip), vehicle: Klucel (hydroxypropylcellulose) (HPC)",101 % of control
same,T/C,"dose: 120.0 mg/kg/injection, schedule: Q01DX005 (ip), vehicle: Klucel (hydroxypropylcellulose) (HPC)",101 % of control
COCOc1cccc2c1CCC2,T/C,[1],100 % of control
same,T/C,[2],100 % of control
same,T/C,[3],100 % of control
Cc1ccc(-c2c([N+](=O)[O-])c3ccccn3c2[N+](=O)[O-])cc1,T/C,[4],92 % of control
same,T/C,[5],90 % of control
same,T/C,[6],99 % of control
FC(F)(F)C1(C(F)(F)F)OI2(Br)(OC(C(F)(F)F)(C(F)(F)F)c3ccccc32)c2ccccc21,T/C,"dose: 6.25 mg/kg/injection, schedule: Q01DX005 (ip), vehicle: Klucel (hydroxypropylcellulose) (HPC)",99 % of control
same,T/C,"dose: 12.5 mg/kg/injection, schedule: Q01DX005 (ip), vehicle: Klucel (hydroxypropylcellulose) (HPC)",97 % of control
C1=C[N-]c2c3c(ccc2=C1)=CC=C[N-]3.N#[O+].O.O=N[O-].O=N[O-].[Ru+2],T/C,"dose: 3.13 mg/kg/injection, schedule: Q04DX003 (ip), vehicle: water",107 % of control
same,T/C,"dose: 12.5 mg/kg/injection, schedule: Q04DX003 (ip), vehicle: water",121 % of control
COc1ccc(N=Cc2ccccc2P(c2ccccc2)c2ccccc2)cc1,T/C,[7],101 % of control
same,T/C,[8],100 % of control
same,T/C,[9],100 % of control
COc1nc(NC2OC(COC(C)=O)C(OC(C)=O)C(OC(C)=O)C2OC(C)=O)c(N=C(C)C(C)=O)c(=O)n1C (stereo not given),T/C,[4],99 % of control
same,T/C,[5],95 % of control
same,T/C,[6],95 % of control
Nc1nc(Nc2ccccc2)nc(-c2ccccc2)n1,T/C,[1],100 % of control
same,T/C,[2],86 % of control
O=c1[nH]c2c([N+](=O)[O-])cc(Cl)cc2nc1/C=C(\O)c1ccco1,T/C,[4],101 % of control
same,T/C,[5],89 % of control
same,T/C,[6],92 % of control
O=C(CSc1nc(-c2ccccc2)c(-c2ccccc2)o1)N1CCCCC1,T/C,[10],93 % of control
same,T/C,[11],110 % of control
same,T/C,[12],110 % of control
CCCCCCCCNC1c2ccccc2CCC1O (stereo not given),T/C,"dose: 25.0 mg/kg/injection, schedule: Q01DX005 (ip), vehicle: Klucel (hydroxypropylcellulose) (HPC)",97 % of control
same,T/C,"dose: 50.0 mg/kg/injection, schedule: Q01DX005 (ip), vehicle: Klucel (hydroxypropylcellulose) (HPC)",94 % of control
same,T/C,"dose: 100.0 mg/kg/injection, schedule: Q01DX005 (ip), vehicle: Klucel (hydroxypropylcellulose) (HPC)",97 % of control
COC1=C(OC)C(=O)C(SCCCCCCC2CCCCC2)=C(C)C1=O,T/C,"dose: 60.0 mg/kg/injection, schedule: Q01DX005 (ip), vehicle: saline + Tween-80 + alcohol",110 % of control
same,T/C,"dose: 120.0 mg/kg/injection, schedule: Q01DX005 (ip), vehicle: saline + Tween-80 + alcohol",115 % of control
O=C1NC(=O)N2CC(CI)OC2C1c1ccccc1 (stereo not given),T/C,[7],103 % of control
same,T/C,[8],98 % of control
same,T/C,[9],100 % of control
FC(F)(F)c1cccc(OCC2CO2)c1 (stereo not given),T/C,[7],102 % of control
same,T/C,[8],99 % of control
same,T/C,[9],97 % of control
CCOC(=O)C(=CN(C)c1ccc(Cl)cc1)C(=O)OCC,T/C,"dose: 6.25 mg/kg/injection, schedule: Q01DX009 (ip), vehicle: saline with Tween-80",102 % of control
same,T/C,"dose: 12.5 mg/kg/injection, schedule: Q01DX009 (ip), vehicle: saline with Tween-80",94 % of control
same,T/C,"dose: 25.0 mg/kg/injection, schedule: Q01DX009 (ip), vehicle: saline with Tween-80",103 % of control
same,T/C,[12],97 % of control
CN(C)c1ccc(/C=N/NC(=O)CNC(=O)n2ccnc2)cc1,T/C,[1],99 % of control
same,T/C,[2],94 % of control
same,T/C,[3],94 % of control
CSCC(N)CO (stereo not given),T/C,[10],110 % of control
same,T/C,[11],105 % of control
same,T/C,[12],101 % of control
